In ChEMBL document CHEMBL5113390, “Design, synthesis and antitumor evaluation of novel 1H-indole-2-carboxylic acid derivatives targeting 14-3-3η protein” (Eur J Med Chem, 2022):
Active and inactive are the calls of the source. No cut-off for these calls is given here.

Key:
Hep 3B2 [1] = test: Induction of apoptosis in human Hep3B cells assessed as early apoptotic cells at 10 uM measured after 48 hrs by Annexin V/FITC-PI staining based flow cytometry assay (reference value: 6.65%); type: functional
Hep 3B2 [2] = test: Induction of apoptosis in human Hep3B cells assessed as viable cells at 10 uM measured after 48 hrs by Annexin V/FITC-PI staining based flow cytometry assay (reference value: 90.09%); type: functional; settings: read-out: Activity
Hep 3B2 [3] = test: Induction of cell cycle arrest in human Hep3B cells assessed as accumulation at G0/G1 phase at 1 uM incubated for 48 hrs by flow cytometry analysis (reference value: 60.85 %); type: functional
[4] = Metabolic stability in human liver microsomes assessed as intrinsic clearance; type: ADME, Microsome; settings: read-out: CLH
Hep 3B2 [5] = test: Downregulation of AKT expression in human Hep3B cells measured after 24 hrs by western blot analysis; type: functional, cell-based; settings: dose 0.5-5 µM, DDE = dose-dependent effect
Hep 3B2 [6] = test: Induction of apoptosis in human Hep3B cells assessed as late apoptotic cells at 5 uM measured after 48 hrs by Annexin V/FITC-PI staining based flow cytometry assay (reference value: 3.14%); type: functional
[7] = biological target: T1, 14-3-3 protein eta (Homo sapiens) (UniProt Q04917); test: Inhibition of 14-3-3 eta in human Hep3B cells assessed as reduction in AKT phosphorylation at T308 residue measured after 24 hrs by western blot analysis; type: cell-based; settings: dose 0.5-5 µM, DDE = dose-dependent effect
T1 sequence (whole entry): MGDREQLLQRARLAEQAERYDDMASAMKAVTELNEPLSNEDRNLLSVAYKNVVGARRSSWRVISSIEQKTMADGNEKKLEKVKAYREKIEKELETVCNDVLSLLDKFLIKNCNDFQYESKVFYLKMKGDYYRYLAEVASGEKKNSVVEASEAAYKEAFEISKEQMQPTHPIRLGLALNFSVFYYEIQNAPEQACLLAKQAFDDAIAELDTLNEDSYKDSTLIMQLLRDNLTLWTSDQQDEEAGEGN

[8] = Metabolic stability in rat liver microsomes assessed as intrinsic clearance; type: ADME, Microsome; settings: read-out: CLH
Bel-7402 = test: Antiproliferative activity against human Bel-7402 cells assessed as reduction in cell viability incubated for 72 hrs by MTT assay; type: functional, cell-based; settings: Bel-7402, 72 h
Hep 3B2 [9] = test: Induction of apoptosis in human Hep3B cells assessed as early apoptotic cells at 2.5 uM measured after 48 hrs by Annexin V/FITC-PI staining based flow cytometry assay (reference value: 6.65%); type: functional
hERG [10] = test: Selectivity ratio of IC50 for inhibition of hERG by automated patch clamp analysis to IC50 for antiproliferative activity against human Hep3B cells assessed as reduction in cell viability incubated for 72 hrs by MTT assay; type: toxicity, cell-based; settings: read-out: Ratio IC50
Hep 3B2 [11] = test: Induction of apoptosis in human Hep3B cells assessed as upregulation of cleaved PARP expression at 5 to 20 uM measured after 48 hrs by Western blot analysis; type: functional, cell-based; settings: dose 5-20 µM
[12] = biological target: T1, 14-3-3 protein eta (Homo sapiens); test: Inhibition of 14-3-3 eta in human Hep3B cells assessed as reduction in AKT phosphorylation at S473 residue measured after 24 hrs by western blot analysis; type: cell-based; settings: dose 0.5-5 µM, DDE = dose-dependent effect
Hep 3B2 [13] = test: Induction of apoptosis in human Hep3B cells assessed as viable cells at 5 uM measured after 48 hrs by Annexin V/FITC-PI staining based flow cytometry assay (reference value: 90.09%); type: functional; settings: read-out: Activity
hERG [14] = test: Selectivity ratio of IC50 for inhibition of hERG by automated patch clamp analysis to IC50 for antiproliferative activity against human HepG2 cells assessed as reduction in cell viability incubated for 72 hrs by MTT assay; type: toxicity, cell-based; settings: read-out: Ratio IC50
Hep 3B2 [15] = test: Antiproliferative activity against human Hep3B cells assessed as reduction in cell viability incubated for 72 hrs by MTT assay; type: functional, cell-based
[16] = biological target: Voltage-gated inwardly rectifying potassium channel KCNH2 (Homo sapiens, UniProt Q12809); test: Inhibition of hERG by automated patch clamp analysis; type: toxicity
hERG [17] = test: Selectivity ratio of IC50 for inhibition of hERG by automated patch clamp analysis to IC50 for antiproliferative activity against human SNU-387 cells assessed as reduction in cell viability incubated for 72 hrs by MTT assay; type: toxicity, cell-based; settings: read-out: Ratio IC50
Hep 3B2 [18] = test: Induction of apoptosis in human Hep3B cells assessed as necrotic cells at 1 uM measured after 48 hrs by Annexin V/FITC-PI staining based flow cytometry assay (reference value: 0.12%); type: functional
Hep 3B2 [19] = test: Induction of cell cycle arrest in human Hep3B cells assessed as accumulation at G2/M phase at 1 uM incubated for 48 hrs by flow cytometry analysis (reference value: 8.59 %); type: functional
[20] = Metabolic stability in rat liver microsomes assessed as half life; type: ADME, Microsome
HepG2 = test: Antiproliferative activity against human HepG2 cells assessed as reduction in cell viability incubated for 72 hrs by MTT assay; type: functional, cell-based; settings: HepG2, 72 h
Hep 3B2 [21] = test: Induction of cell cycle arrest in human Hep3B cells assessed as accumulation at S phase at 1 uM incubated for 48 hrs by flow cytometry analysis (reference value: 30.56 %); type: functional

Chain of Voltage-gated inwardly rectifying potassium channel KCNH2 (Q12809 whole entry): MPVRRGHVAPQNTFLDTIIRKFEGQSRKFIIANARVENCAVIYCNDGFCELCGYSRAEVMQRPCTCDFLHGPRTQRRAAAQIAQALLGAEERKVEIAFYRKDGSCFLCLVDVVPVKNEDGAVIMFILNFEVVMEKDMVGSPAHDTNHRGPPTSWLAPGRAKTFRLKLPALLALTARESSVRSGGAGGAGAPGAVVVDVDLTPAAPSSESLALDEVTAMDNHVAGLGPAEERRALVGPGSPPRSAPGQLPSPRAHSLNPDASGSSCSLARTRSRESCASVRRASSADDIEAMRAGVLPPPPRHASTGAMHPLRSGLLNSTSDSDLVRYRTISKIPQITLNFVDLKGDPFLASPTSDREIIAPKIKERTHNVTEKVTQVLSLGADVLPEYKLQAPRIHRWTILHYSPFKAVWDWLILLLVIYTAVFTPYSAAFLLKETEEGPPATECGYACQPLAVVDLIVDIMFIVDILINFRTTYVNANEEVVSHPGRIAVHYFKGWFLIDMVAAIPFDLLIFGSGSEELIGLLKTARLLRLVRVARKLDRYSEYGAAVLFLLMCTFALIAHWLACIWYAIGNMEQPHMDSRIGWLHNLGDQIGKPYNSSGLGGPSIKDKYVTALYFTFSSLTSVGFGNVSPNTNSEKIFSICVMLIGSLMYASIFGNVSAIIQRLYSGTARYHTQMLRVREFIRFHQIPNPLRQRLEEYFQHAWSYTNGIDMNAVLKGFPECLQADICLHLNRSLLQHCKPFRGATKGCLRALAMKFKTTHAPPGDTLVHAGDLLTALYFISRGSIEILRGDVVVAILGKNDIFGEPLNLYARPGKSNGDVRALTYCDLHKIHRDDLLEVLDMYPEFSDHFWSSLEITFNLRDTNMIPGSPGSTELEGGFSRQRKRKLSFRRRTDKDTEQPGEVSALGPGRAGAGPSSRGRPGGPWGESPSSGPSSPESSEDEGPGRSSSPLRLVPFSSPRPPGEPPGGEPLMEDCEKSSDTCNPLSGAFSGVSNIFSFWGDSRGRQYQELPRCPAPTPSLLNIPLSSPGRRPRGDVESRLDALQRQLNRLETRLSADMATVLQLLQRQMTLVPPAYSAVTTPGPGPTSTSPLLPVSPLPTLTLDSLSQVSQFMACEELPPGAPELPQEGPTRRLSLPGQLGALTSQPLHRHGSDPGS

SMILES: COc1cccc(CNCc2c(C(=O)O)n(Cc3ccc(C)cc3)c3cc(C(C)C)ccc23)c1
- Activity (Hep 3B2 [1]): 21.73%
- viability at 10 µM (Hep 3B2 [2]): 61.9%
- Activity (Hep 3B2 [3]): 58.63%
- CLint scaled [4]: 238 mL/min/kg
- inhibition (Hep 3B2 [5]): Dde
- Activity (Hep 3B2 [6]): 7.79%
- inhibition [7]: Dde
- CLint scaled [8]: 269 mL/min/kg
- IC50 (Bel-7402): 5.92 µM
- Activity (Hep 3B2 [9]): 8.74%
- selectivity ratio at 72 h (hERG [10]): 8.5
- Activity (Hep 3B2 [11]): Active
- inhibition [12]: Dde
- viability at 5 µM (Hep 3B2 [13]): 79.9%
- selectivity ratio at 72 h (hERG [14]): 10.1
- IC50 (Hep 3B2 [15]): 4.07 µM
- IC50 [16]: 34.6 µM
- selectivity ratio at 72 h (hERG [17]): 6.32
- Activity (Hep 3B2 [18]): 0.38%
- Activity (Hep 3B2 [19]): 5.79%
- half-life [20]: 9.25 min
- IC50 (HepG2): 3.43 µM
- Activity (Hep 3B2 [21]): 35.59%
